Assay results reported in patent US20220387393A1, “METHODS FOR THE TREATMENT OF DYSMYELINATING/DEMYELINATING DISEASES” (Board of Regents, The University of Texas System, priority 2019, published 2022).

Key:
[1] = tested on: corpus callosum (CC) myelin of mouse brains; conditions: 6 months after a clinically relevant dose for 1 week; cited from earlier work
[2] = tested on: corpus callosum (CC) myelin of mouse brains; assay type: in vivo; conditions: for delayed-onset demyelination and myelin lipid reduction in the CC: 6 months, but not 4 months, after chemotherapy cessation
Excerpt: (§1) FIGS. 4A-4C. […] (FIG. 4A) Quantitative FluoroMyelin staining of the corpus callosum (CC) in 4-month and 6-month mouse brains treated with 5-FU, saline and/or KD3010. (FIG. 4B) Quantitative immunofluorescent staining of oligodendrocyte lineage marker Olig2 in the CC of 6-month mouse brains treated with 5-FU or saline.

Qk-iCKO mice = assay: Qki depletion-induced demyelination in Qk-iCKO mice, daily oral administration; assay type: in vivo; conditions: for Qk-iCKO mice that lived for more than 100 days: 3 of 13 treated Qk-iCKO mice; for maximum survival duration increased / clinical scores / onset of neurological deficits / prolonged median survival times / body weights: Qk-iCKO mice; for maximum survival duration increased: compared to controls; for clinical scores / onset of neurological deficits / prolonged median survival times / body weights: oral administration, compared to vehicle; for body weights: 4 weeks after tamoxifen injection; for higher myelin lipid levels (FluoroMyelin) than vehicle-treated Qk-iCKO mice: corpus callosum; for higher myelin lipid levels (FluoroMyelin) than vehicle-treated Qk-iCKO mice / myelin sheaths (g-ratio) / more myelinated axons than vehicle-treated Qk-iCKO mice: after 5 weeks of treatment; for myelin sheaths (g-ratio) / more myelinated axons than vehicle-treated Qk-iCKO mice: optic nerves; for myelin sheaths (g-ratio): versus vehicle; for more myelinated axons than vehicle-treated Qk-iCKO mice: electron micrographs
Excerpt: FIGS. 2A-2J. […] In FIG. 2A, the four groups within each week represent, from left to right, Ctrl (Veh), iCKO (Veh), Ctrl (KD3010), and iCKO (KD3010). In FIG. 2D, the four groups within each week represent, from left to right, Ctrl (Veh), iCKO (Veh), Ctrl (Bex), and iCKO (Bex). In FIGS. 2B and 2E, the two lines that reach the X-axis represent the iCKO populations. (FIGS. 2C and 2F) Body weights of Qk-iCKO mice and controls receiving daily oral administration of KD3010, Bex, or Veh for 4 weeks after tamoxifen injection. (FIGS. 2G and 2H) Representative electron micrographs and quantification of the percentage of myelinated axons and g-ratio of the optic nerves of the experimental mice after 5 weeks of treatment. Scale bars, 500 nm. (FIGS. 2I and 2J) Representative images and quantification of FluoroMyelin level in the corpus callosum tissues of experimental mice after 5 weeks of treatment. Scale bars, 50 μm. Data are mean±s.d.; one-way ANOVA with Fisher's LSD correction. *P<0.05; **P<0.01; ***P<0.001; ****P<0.0001. ns, not significant.
Therefore, whether PPARβ-RXRα agonists could alleviate lipid defect-induced demyelination and its related symptoms was tested.

[3] = tested on: demyelination induced by 5-FU; assay: 5-FU (chemotherapy)-induced demyelination in mice, treatment with agonist; assay type: in vivo; conditions: FluoroMyelin staining of corpus callosum, mouse brains treated with 5-FU
Excerpt: as §1

[4] = Dickey et al., 2016; cited from earlier work

Row | SMILES | delayed-onset demyelination and myelin lipid reduction in the CC [2] | Qk-iCKO mice that lived for more than 100 days (Qk-iCKO mice) | maximum survival duration increased (Qk-iCKO mice) | clinical scores (Qk-iCKO mice) | onset of neurological deficits (Qk-iCKO mice) | prolonged median survival times (Qk-iCKO mice) | body weights (Qk-iCKO mice) | higher myelin lipid levels (FluoroMyelin) than vehicle-treated Qk-iCKO mice (Qk-iCKO mice) | myelin sheaths (g-ratio) (Qk-iCKO mice) | more myelinated axons than vehicle-treated Qk-iCKO mice (Qk-iCKO mice) | other results
1 | O=c1[nH]cc(F)c(=O)[nH]1 [5-FU, 5-fluorouracil] | exhibited delayed-onset demyelination and myelin lipid reduction | – | – | – | – | – | – | – | – | – | delayed-onset demyelination (Han et al., 2008) [1]: developed delayed-onset demyelination; changes in myelin protein levels and oligodendrocyte numbers ([2]; CC of 6-month mouse brains): minimal changes; Qki in the oligodendrocytes in the lesions ([2]; Olig2/Qki double staining, CC of 6-month mouse brains): greatly reduced
2 | C[C@@H]1CN(c2ccc(OC(F)(F)F)cc2)C[C@H](C)N1S(=O)(=O)c1cccc2c1C[C@@H](C(=O)O)C2 [KD3010, (S)-4-[cis-2,6-dimethyl-4-(4-trifluoromethoxy-phenyl)piperazine-1-sulfonyl]-indan-2-carboxylic acid] | – | 23.1% | 3.72 fold | lowered | significantly delayed | 2.34 fold | increased | 119.4% | thicker | 115.3% | demyelination induced by 5-FU [3]: greatly alleviated; CNS permeability [4]: CNS-permeable
3 | C=C(c1ccc(C(=O)O)cc1)c1cc2c(cc1C)C(C)(C)CCC2(C)C [bexarotene] | – | 23.1% | 4.03 fold | lowered | significantly delayed | 1.41 fold | increased | 89.5% | thicker | 73.7% | –
4 | COc1cccc2c1C(=O)c1c(O)c3c(c(O)c1C2=O)C[C@@](O)(C(=O)CO)C[C@@H]3O[C@H]1C[C@H](N)[C@H](O)[C@H](C)O1 [doxorubicin] | exhibited delayed-onset demyelination and myelin lipid reduction | – | – | – | – | – | – | – | – | – | –
5 | CN(Cc1cnc2nc(N)nc(N)c2n1)c1ccc(C(=O)N[C@@H](CCC(=O)O)C(=O)O)cc1 [methotrexate] | exhibited delayed-onset demyelination and myelin lipid reduction | – | – | – | – | – | – | – | – | – | –
